# Assays:
# Format in all cases: cell-based
# [1] = molecular target: T1, hTLR7 (Homo sapiens, UniProt Q9NYK1); assay: IL-8 production in 293 cells transiently transfected with hTLR7; details: 293 cells transfected with hTLR7; ODN 2 μM, LPS 100 ng/ml
# T1 construct: codes for a protein of 1049 amino acids; expressed in transfected cells; host or cells: human 293 fibroblasts (ATCC CRL-1573), transient
# T1 sequence (Q9NYK1 27-1049): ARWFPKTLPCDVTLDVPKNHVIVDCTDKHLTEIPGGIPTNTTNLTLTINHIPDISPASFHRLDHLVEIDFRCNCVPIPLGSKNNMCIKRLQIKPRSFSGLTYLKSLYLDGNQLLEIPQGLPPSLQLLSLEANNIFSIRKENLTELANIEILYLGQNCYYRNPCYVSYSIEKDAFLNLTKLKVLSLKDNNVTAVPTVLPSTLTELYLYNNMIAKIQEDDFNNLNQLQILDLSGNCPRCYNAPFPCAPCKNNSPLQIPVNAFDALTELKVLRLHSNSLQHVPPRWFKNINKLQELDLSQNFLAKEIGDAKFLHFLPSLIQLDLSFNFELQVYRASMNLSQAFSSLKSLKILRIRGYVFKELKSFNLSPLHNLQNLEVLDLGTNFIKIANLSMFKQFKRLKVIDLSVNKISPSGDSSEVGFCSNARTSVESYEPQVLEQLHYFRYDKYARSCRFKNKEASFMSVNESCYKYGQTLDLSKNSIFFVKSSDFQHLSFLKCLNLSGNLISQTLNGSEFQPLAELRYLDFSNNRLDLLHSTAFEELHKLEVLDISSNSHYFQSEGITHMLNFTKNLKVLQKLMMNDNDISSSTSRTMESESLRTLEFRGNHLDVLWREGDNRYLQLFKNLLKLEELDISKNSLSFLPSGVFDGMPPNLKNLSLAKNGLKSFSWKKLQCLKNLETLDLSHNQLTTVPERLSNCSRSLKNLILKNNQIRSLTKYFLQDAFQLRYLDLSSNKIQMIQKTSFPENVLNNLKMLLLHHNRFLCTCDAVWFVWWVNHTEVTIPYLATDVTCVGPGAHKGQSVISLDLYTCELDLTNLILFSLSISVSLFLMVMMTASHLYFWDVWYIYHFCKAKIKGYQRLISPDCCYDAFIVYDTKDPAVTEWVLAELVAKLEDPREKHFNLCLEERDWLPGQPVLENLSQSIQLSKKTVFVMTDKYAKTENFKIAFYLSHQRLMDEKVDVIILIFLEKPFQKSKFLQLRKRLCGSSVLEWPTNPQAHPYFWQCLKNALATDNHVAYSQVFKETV
# Procedure: (§1) The cloned human TLR7 and human TLR8 cDNA (our result) were cloned into the expression vector pcDNA3.1 (−) from Invitrogen using the NotI site. Utilizing a “gain of function” assay, hTLR7 and hTLR8 expression vectors were transiently expressed in human 293 fibroblasts (ATCC, CRL-1573) using the calcium phosphate method. Activation was monitored by IL-8 production after stimulus with CpG-ODN (2006 or 1668, 2 μM) or LPS (100 ng/ml).
# [2] = molecular target: T2, hTLR8 (Homo sapiens, UniProt Q9NR97); assay: IL-8 production in 293 cells transiently transfected with hTLR8; details: 293 cells transfected with hTLR8; ODN 2 μM, LPS 100 ng/ml
# T2 construct: codes for a protein of 1041 amino acids; expressed in transfected cells; host or cells: human 293 fibroblasts (ATCC CRL-1573), transient
# T2 sequence (Q9NR97 27-1041): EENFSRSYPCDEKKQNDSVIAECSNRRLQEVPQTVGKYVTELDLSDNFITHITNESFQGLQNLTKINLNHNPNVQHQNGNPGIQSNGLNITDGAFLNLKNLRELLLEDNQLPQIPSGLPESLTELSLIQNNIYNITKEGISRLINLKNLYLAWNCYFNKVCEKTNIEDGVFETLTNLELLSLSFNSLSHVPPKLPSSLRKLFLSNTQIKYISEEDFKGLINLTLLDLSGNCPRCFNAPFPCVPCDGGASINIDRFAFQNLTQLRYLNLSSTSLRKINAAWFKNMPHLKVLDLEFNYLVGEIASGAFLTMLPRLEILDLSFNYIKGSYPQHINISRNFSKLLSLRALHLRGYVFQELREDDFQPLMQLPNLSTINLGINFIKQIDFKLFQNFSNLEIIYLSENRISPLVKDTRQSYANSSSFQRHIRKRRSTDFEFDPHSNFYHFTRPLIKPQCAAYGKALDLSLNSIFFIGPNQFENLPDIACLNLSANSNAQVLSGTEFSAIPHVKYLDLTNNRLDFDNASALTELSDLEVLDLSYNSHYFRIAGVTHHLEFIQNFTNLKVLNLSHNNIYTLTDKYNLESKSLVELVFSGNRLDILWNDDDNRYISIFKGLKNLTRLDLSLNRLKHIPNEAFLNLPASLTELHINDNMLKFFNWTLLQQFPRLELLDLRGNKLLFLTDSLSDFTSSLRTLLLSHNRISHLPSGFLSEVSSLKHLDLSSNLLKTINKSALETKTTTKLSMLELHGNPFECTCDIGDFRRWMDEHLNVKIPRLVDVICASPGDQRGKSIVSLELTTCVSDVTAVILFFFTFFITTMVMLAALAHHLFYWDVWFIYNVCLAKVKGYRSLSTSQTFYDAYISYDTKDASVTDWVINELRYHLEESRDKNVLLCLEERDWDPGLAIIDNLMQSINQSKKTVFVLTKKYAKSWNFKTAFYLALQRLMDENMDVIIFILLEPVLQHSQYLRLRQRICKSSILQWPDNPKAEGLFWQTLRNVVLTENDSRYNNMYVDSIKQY
# Procedure: as §1
# [3] = tested on: Human peripheral blood mononuclear cells (PBMC); assay: IL-12 production in human PBMC; details: ODN titration, after 8 hours
# Source text: By iterative examination of the flanking sequences surrounding CG dinucleotides, CpG-motifs have been identified. Paradoxically, or by twist of nature, the human optimal CpG-motif, GTCGTT (SEQ ID NO:66), is different from the murine motif, GACGTT (SEQ ID NO:129). Human peripheral blood mononuclear cells (PBMC) (FIG. 10A) and murine splenocytes (FIG. 10B) were stimulated with ODN 2006 (filled circle, […], SEQ ID NO:112), ODN 2006-GC (open circle), ODN 1668 (filled triangle, […], SEQ ID NO:84) or ODN 1668-GC (open triangle, […], SEQ ID NO:85) at indicated concentrations and IL-12 production was monitored after 8 hours. […] It should also be noted that the Kac (concentration of half-maximal activation) of murine splenocytes for 1668 was greater than human PBMC for 2006 (compare FIG. 10A to FIG. 10B).
# [4] = tested on: human B cells; assay: Human B cell proliferation by 3H-thymidine uptake; details: purified human B cells, day two; E. coli DNA 50 μg/ml, ODN 2 μM
# Source text: Bacterial DNA has been described as a mitogen for both murine and human B cells. Although LPS is also mitogenic for murine B cells, it is generally accepted that LPS is not a mitogen for human B cells. […] B cell proliferation was monitored at day two by ^3H-thymidine uptake.
Substance,activation monitored by IL-8 production [1],activation monitored by IL-8 production [2],IL-12 production [3],B cell proliferation (3H-thymidine uptake) [4]
"TCCATGACGTTCCTGATGCT (listed as DNA, chemistry not fully specified) [ODN 1668]",None of the stimuli used activated,None of the stimuli used activated,much less effective,
"TCCATGAGCTTCCTGATGCT (listed as DNA, chemistry not fully specified) [ODN 1668-GC]",,,essentially negative,
TCGTCGTTTTGTCGTTTTGTCGTT [ODN 2006],None of the stimuli used activated,None of the stimuli used activated,induces IL-12 production,proliferate
"TGCTGCTTTTGTGCTTTTGTGCTT (listed as DNA, chemistry not fully specified) [ODN 2006-GC]",,,essentially negative,not
lipopolysaccharide [LPS],None of the stimuli used activated,None of the stimuli used activated,,
